For the assay, the target named is T1, Human thrombin (Homo sapiens, UniProt P00734).
T1 construct: purchased Haematologic Technologies Inc
As to the kind of experiment: Thrombin protease activity inhibition, chromogenic substrate S-2238. The conditions noted are these: 3 nM thrombin, 125 μM S-2238, 10 min pre-incubation, RT. The class given is biochemical. In outline:
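Ten-point, three-fold serial dilutions of compound tested against 3 nM enzyme at RT in Tris buffer (0.05 M, pH 7.4) with 0.015 M NaCl and 0.01% PEG-8000.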

The structures appear in SMILES notation. Counter-ions that a name gives are not always drawn. Bounds are passed on as bounds.

24 compounds from US10532995B2, “Substituted pyrazole compounds as serine protease inhibitors” (VERSEON CORPORATION, priority 2015, dated 2020) can be followed below.

A word on the IC50: it is the midpoint of a concentration-inhibition curve. As for `COc1ccccc1C(=O)n1nc(C2(C)CCCN2)cc1NCc1ccc(Cl)s1` (stereo not drawn) [Entry 152, N-[(5-chlorothiophen-2-yl)methyl]-1-(2-methoxybenzoyl)-3-(2-methylpyrrolidin-2-yl)-1H-pyrazol-5-amine; formic acid], the IC50 is 100 to 1000 nM.
Compound `COc1ccccc1C(=O)n1nc(C2(C)CCNCC2)cc1NCc1ccc(Cl)s1` [Entry 154, N-[(5-chlorothiophen-2-yl)methyl]-1-(2-methoxybenzoyl)-3-(4-methylpiperidin-4-yl)-1H-pyrazol-5-amine] yielded an IC50 of 1000 to 10000 nM.
Consider `C=CCOC(=O)N1CC(c2cc(NCc3ccc(Cl)s3)n(C(=O)C(C)(C)C)n2)C1` [Entry 255, prop-2-en-1-yl 3-(5-[(5-chlorothiophen-2-yl)methyl]amino-1-(2,2-dimethylpropanoyl)-1H-pyrazol-3-yl)azetidine-1-carboxylate], for which the IC50 was under 100 nM.
Under `COCCN1CCC(c2cc(NCc3ccc(Cl)s3)[nH]n2)CC1` [Entry 200, N-[(5-chlorothiophen-2-yl)methyl]-3-[1-(2-methoxyethyl)piperidin-4-yl]-1H-pyrazol-5-amine] stands over 100000 nM; under `COc1ccccc1C(=O)n1nc(C2CCCNC2)cc1NCc1ccc(Cl)s1` (stereo not drawn) [Entry 157, N-[(5-chlorothiophen-2-yl)methyl]-1-(2-methoxybenzoyl)-3-(piperidin-3-yl)-1H-pyrazol-5-amine], 100 to 1000 nM; under `C=CCOC(=O)N1CCC(c2nn(C(=O)C(C)(C)C)c(NCc3ccc(Cl)s3)c2C)CC1` [Entry 264, prop-2-en-1-yl 4-(5-[(5-chlorothiophen-2-yl)methyl]amino-1-(2,2-dimethylpropanoyl)-4-methyl-1H-pyrazol-3-yl)piperidine-1-carboxylate], under 100 nM.
Regarding `Cc1c(C2CCNCC2)nn(C(=O)C(C)(C)C)c1NCc1ccc(Cl)s1` [Entry 89, 1-(5-[(5-chlorothiophen-2-yl)methyl]amino-4-methyl-3-(piperidin-4-yl)-1H-pyrazol-1-yl)-2,2-dimethylpropan-1-one; formic acid], the IC50 fell in the range of 1000 to 10000 nM.
Under `O=C(c1ccoc1)n1nc(C2CCCN2)cc1NCc1ccc(Cl)s1` (stereo not drawn) [Entry 167, N-[(5-chlorothiophen-2-yl)methyl]-1-(furan-3-carbonyl)-3-(pyrrolidin-2-yl)-1H-pyrazol-5-amine] stands under 100 nM; under `FC(F)(F)C(c1ccccn1)N1CCC(c2cc(NCc3ccc(Cl)s3)[nH]n2)CC1` (stereo not drawn) [Entry 221, N-[(5-chlorothiophen-2-yl)methyl]-3-1-[2,2,2-trifluoro-1-(pyridin-2-yl)ethyl]piperidin-4-yl-1H-pyrazol-5-amine], over 100000 nM.
`Cc1c(C2CCN(C(=O)c3cscn3)CC2)n[nH]c1NCc1ccc(Cl)s1` [Entry 236, N-[(5-chlorothiophen-2-yl)methyl]-4-methyl-3-[1-(1,3-thiazole-4-carbonyl)piperidin-4-yl]-1H-pyrazol-5-amine] yielded an IC50 of over 100000 nM.
Under `O=C(N1CCOCC1)N1C2CCC1CC(c1cc(NCc3ccc(Cl)s3)[nH]n1)C2` (stereo not drawn) [Entry 214, N-[(5-chlorothiophen-2-yl)methyl]-3-[8-(morpholine-4-carbonyl)-8-azabicyclo[3.2.1]octan-3-yl]-1H-pyrazol-5-amine] stands over 100000 nM.
Under `COCC(C)(C)C(=O)n1nc(C2(C)CCCNC2=O)cc1NCc1ccc(Cl)s1` (stereo not drawn) [Entry 120, 3-(5-[(5-chlorothiophen-2-yl)methyl]amino-1-(3-methoxy-2,2-dimethylpropanoyl)-1H-pyrazol-3-yl)-3-methylpiperidin-2-one] stands 1000 to 10000 nM; under `CC1(c2cc(NCc3ccc(Cl)s3)n(C(=O)c3ccsc3)n2)CCNC1=O` (stereo not drawn) [Entry 124, 3-(5-[(5-chlorothiophen-2-yl)methyl]amino-1-(thiophene-3-carbonyl)-1H-pyrazol-3-yl)-3-methylpyrrolidin-2-one], 100 to 1000 nM; under `Clc1ccc(CNc2cc(C3CCN(Cc4cnn[nH]4)CC3)n[nH]2)s1` [Entry 196, N-[(5-chlorothiophen-2-yl)methyl]-3-[1-(1H-1,2,3-triazol-5-ylmethyl)piperidin-4-yl]-1H-pyrazol-5-amine], over 100000 nM.
As for `C=CCOC(=O)N1CCC(c2cc(NCc3ccc(Cl)s3)[nH]n2)CC1` [Entry 266, prop-2-en-1-yl 4-(5-[(5-chlorothiophen-2-yl)methyl]amino-1H-pyrazol-3-yl)piperidine-1-carboxylate], the IC50 is over 100000 nM.
The result for `C=CCOC(=O)N1CCN(S(C)(=O)=O)CC1c1cc(NCc2ccc(Cl)s2)n(C(=O)c2cscn2)n1` (stereo not drawn) [Entry 242, prop-2-en-1-yl 2-(5-[(5-chlorothiophen-2-yl)methyl]amino-1-(1,3-thiazole-4-carbonyl)-1H-pyrazol-3-yl)-4-methanesulfonylpiperazine-1-carboxylate] reads 100 to 1000 nM; that for `Cc1c(C2CCN(C(=O)OC(C)(C)C)CC2)n[nH]c1NCc1ccc(Cl)s1` [Entry 303, tert-butyl 4-(5-[(5-chlorothiophen-2-yl)methyl]amino-4-methyl-1H-pyrazol-3-yl)piperidine-1-carboxylate], over 100000 nM; that for `C=CCOC(=O)N1CCC(c2nn(C(=O)C(C)(C)C)c(NCc3ccc(Cl)s3)c2F)CC1` [Entry 263, prop-2-en-1-yl 4-(5-[(5-chlorothiophen-2-yl)methyl]amino-1-(2,2-dimethylpropanoyl)-4-fluoro-1H-pyrazol-3-yl)piperidine-1-carboxylate], under 100 nM.
Consider `C=CCOC(=O)N1CCC(c2nn(C(=O)c3cscn3)c(NCc3ccc(Cl)s3)c2C)CC1` [Entry 270, prop-2-en-1-yl 4-(5-[(5-chlorothiophen-2-yl)methyl]amino-4-methyl-1-(1,3-thiazole-4-carbonyl)-1H-pyrazol-3-yl)piperidine-1-carboxylate], for which the half-maximal inhibitory concentration (IC50) is under 100 nM.
Under `O=C(C1CCCCC1)n1nc(C2CCNCC2)cc1NCc1ccc(Cl)s1` [Entry 169, N-[(5-chlorothiophen-2-yl)methyl]-1-cyclohexanecarbonyl-3-(piperidin-4-yl)-1H-pyrazol-5-amine hydrochloride] stands over 100000 nM.
`O=C(N1CCOCC1)N1C2CCC1CC(c1cc(NCc3ccc(Cl)s3)n(C(=O)c3cscn3)n1)C2` (stereo not drawn) [Entry 213, N-[(5-chlorothiophen-2-yl)methyl]-3-[8-(morpholine-4-carbonyl)-8-azabicyclo[3.2.1]octan-3-yl]-1-(1,3-thiazole-4-carbonyl)-1H-pyrazol-5-amine] displayed an IC50 of under 100 nM.
The result for `CS(=O)(=O)N1CCCC1c1cc(NCc2ccc(Cl)s2)[nH]n1` (stereo not drawn) [Entry 174, N-[(5-chlorothiophen-2-yl)methyl]-3-(1-methanesulfonylpyrrolidin-2-yl)-1H-pyrazol-5-amine] reads over 100000 nM; that for `Clc1ccc(CNc2cc(C3CCN(Cc4ccccn4)CC3)n[nH]2)s1` [Entry 210, N-[(5-chlorothiophen-2-yl)methyl]-3-[1-(pyridin-2-ylmethyl)piperidin-4-yl]-1H-pyrazol-5-amine], 1000 to 10000 nM; that for `CC(C)(C)C(=O)N1CCC(c2cc(NCc3ccc(Cl)s3)n(C(=O)c3ccsc3)n2)CC1` [Entry 101, 1-[4-(5-[(5-chlorothiophen-2-yl)methyl]amino-1-(thiophene-3-carbonyl)-1H-pyrazol-3-yl)piperidin-1-yl]-2,2-dimethylpropan-1-one], under 100 nM.
